Results as given in patent US20240279241A1, “PYRIDO[4,3-D]PYRIMIDINE COMPOUNDS CAPABLE OF INHIBITING KRAS MUTANT PROTEINS” (Redx Pharma PLC, priority 2021, published 2024).

What was measured:
Assay type in all cases: biochemical
[1] = molecular target: T1, KRAS G12V (Homo sapiens, UniProt P01116, G12V); test: HTRF nucleotide exchange assay (NEA), KRAS G12V
T1 construct: 4 nM KRAS; aa1-188 containing the G12V, G12C, G12A or G12S amino acid substitution
How it was run: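 After a further 30 minutes at room temperature, time-resolved fluorescence was read on a PerkinElmer Envision. The buffer contained 10 mM HEPES pH7.3, 150 mM NaCl, 5 mM MgCl2, 0.05% BSA, 0.0025% NP-40 and 100 mM KF. DMSO (0.3%) gave the Max signal and unlabeled GOP (1 μM) the Min signal. IC50 came from four-parameter logistic fits of at least two independent replicates.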

[2] = molecular target: T2, KRAS Q61H (Homo sapiens, UniProt P01116, Q61H); test: HTRF nucleotide exchange assay (NEA), KRAS Q61H
T2 construct: Recombinant human RAS protein (2 nM); aa1-188 KRAS WT
Method: (§1) The capacity of compounds to bind KRAS G12D, other KRAS mutants and wildtype RAS isoforms was quantified using a HTRF nucleotide exchange assay. Recombinant human RAS protein (2 nM; aa1-188 KRAS WT, HRAS WT, NRAS WT, or KRAS containing the containing the G12D, G13D or Q61H amino acid substitutions, or 4 nM KRAS; aa1-188 containing the G12V, G12C, G12A or G12S amino acid substitution, an N-terminal 6×His-tag and leader sequence), and 2 nM Europium-labeled anti-6×His antibody were mixed in assay buffer (10 mM HEPES pH7.3, 150 mM NaCl, 5 mM MgCl2, 0.05% BSA, 0.0025% NP-40 and 100 mM KF) with various concentrations of compound in a 384-well plate and a volume of 5 uL. After a 60-minute incubation at room temperature, 5 ul of 200 nM EDA-GTP-DY647P1 (diluted in assay buffer) was added to the plate. Following 30-minute incubation at room temperature, time-resolved fluorescence was measured on a PerkinElmer Envision plate reader. DMSO (0.3%) and unlabeled […] (1 μM) or equivalent tool compound were used to generate the Max and Min assay signals, respectively. Data was analysed using a four-parameter logistic model to calculate IC50 values, with at least two independent replicates were performed for each compound.

[3] = molecular target: T3, KRAS G13D (Homo sapiens, UniProt P01116, G13D); test: HTRF nucleotide exchange assay (NEA), KRAS G13D; conditions: recombinant human KRAS G13D aa1-188, 2 nM; lowest class = % inhibition at 10 μM
T3 construct: Recombinant human RAS protein (2 nM); aa1-188 KRAS WT
Method: as §1

[4] = molecular target: T4, KRAS WT (Homo sapiens, UniProt P01116); test: HTRF nucleotide exchange assay (NEA), KRAS WT
T4 construct: Recombinant human RAS protein (2 nM); aa1-188 KRAS WT
How it was run: (§2)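 Cmpd + His-KRAS(1-188) [WT, G13D 2 nM; G12C, G12S 4 nM] + Eu anti-6×His 2 nM, pH 7.3 HEPES/NaCl/MgCl2/KF buffer, 60 min RT. Add EDA-GTP-DY647P1 (200 nM soln), 30 min RT. HTRF read. DMSO = max signal; 4PL IC50.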

[5] = molecular target: T5, KRAS G12S (Homo sapiens, UniProt P01116, G12S); test: HTRF nucleotide exchange assay (NEA), KRAS G12S
T5 construct: 4 nM KRAS; aa1-188 containing the G12V, G12C, G12A or G12S amino acid substitution
How it was run: as §2

[6] = molecular target: T6, KRAS G12A (Homo sapiens, UniProt P01116, G12A); test: HTRF nucleotide exchange assay (NEA), KRAS G12A
T6 construct: 4 nM KRAS; aa1-188 containing the G12V, G12C, G12A or G12S amino acid substitution

[7] = molecular target: T7, KRAS G12C (Homo sapiens, UniProt P01116, G12C); test: HTRF nucleotide exchange assay (NEA), KRAS G12C
T7 construct: 4 nM KRAS; aa1-188 containing the G12V, G12C, G12A or G12S amino acid substitution
How it was run: as §2

[8] = molecular target: T8, KRAS G12D (Homo sapiens, UniProt P01116, G12D); test: HTRF nucleotide exchange assay (NEA), KRAS G12D; conditions: recombinant human KRAS G12D aa1-188, 2 nM; lowest class = % inhibition at 10 μM
T8 construct: Recombinant human RAS protein (2 nM)
How it was run: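 Compound binding to KRAS G12D was measured by HTRF nucleotide exchange. Recombinant human KRAS G12D (aa1-188, N-terminal 6×His-tag, 2 nM) and 2 nM Europium anti-6×His antibody were combined with compound in 5 uL assay buffer in 384-well plates for 60 minutes at room temperature, then 5 ul of 200 nM EDA-GTP-DY647P1 was added for 30 minutes before time-resolved fluorescence reading.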

T5 sequence (P01116 1-188 isoform P01116-2 G12S): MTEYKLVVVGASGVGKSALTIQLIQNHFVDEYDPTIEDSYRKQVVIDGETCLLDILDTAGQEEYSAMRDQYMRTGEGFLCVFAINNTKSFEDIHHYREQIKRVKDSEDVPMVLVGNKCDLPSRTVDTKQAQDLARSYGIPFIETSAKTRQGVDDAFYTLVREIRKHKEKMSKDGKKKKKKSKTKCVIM
T4 sequence (P01116 1-188 isoform P01116-2): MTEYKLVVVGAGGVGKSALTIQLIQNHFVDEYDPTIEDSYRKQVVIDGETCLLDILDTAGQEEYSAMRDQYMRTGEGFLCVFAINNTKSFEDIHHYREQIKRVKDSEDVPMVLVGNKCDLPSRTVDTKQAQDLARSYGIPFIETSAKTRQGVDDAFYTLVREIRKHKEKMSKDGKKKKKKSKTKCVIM
T3 sequence (P01116 1-188 isoform P01116-2 G13D): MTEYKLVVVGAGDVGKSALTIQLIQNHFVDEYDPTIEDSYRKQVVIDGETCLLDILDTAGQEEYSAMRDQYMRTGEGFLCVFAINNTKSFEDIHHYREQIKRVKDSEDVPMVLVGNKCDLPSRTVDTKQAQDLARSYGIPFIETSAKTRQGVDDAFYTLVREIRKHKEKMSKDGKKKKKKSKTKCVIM
T6 sequence (P01116 1-188 isoform P01116-2 G12A): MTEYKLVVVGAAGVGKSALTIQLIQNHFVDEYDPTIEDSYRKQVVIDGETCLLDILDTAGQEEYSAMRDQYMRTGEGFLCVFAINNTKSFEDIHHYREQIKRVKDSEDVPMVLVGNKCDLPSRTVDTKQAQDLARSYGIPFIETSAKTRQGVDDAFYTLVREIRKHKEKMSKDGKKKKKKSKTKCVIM
T2 sequence (P01116 1-188 isoform P01116-2 Q61H): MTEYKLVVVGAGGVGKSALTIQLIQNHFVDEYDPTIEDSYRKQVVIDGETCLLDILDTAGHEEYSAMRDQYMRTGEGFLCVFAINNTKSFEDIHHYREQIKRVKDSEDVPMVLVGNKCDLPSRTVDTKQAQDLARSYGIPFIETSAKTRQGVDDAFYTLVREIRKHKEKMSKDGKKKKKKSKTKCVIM
T7 sequence (P01116 1-188 isoform P01116-2 G12C): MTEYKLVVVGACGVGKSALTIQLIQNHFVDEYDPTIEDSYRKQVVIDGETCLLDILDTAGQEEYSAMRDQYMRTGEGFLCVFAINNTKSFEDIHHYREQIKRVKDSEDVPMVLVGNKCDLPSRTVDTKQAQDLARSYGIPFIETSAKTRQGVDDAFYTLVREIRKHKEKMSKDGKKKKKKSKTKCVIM
T1 sequence (P01116 1-188 isoform P01116-2 G12V): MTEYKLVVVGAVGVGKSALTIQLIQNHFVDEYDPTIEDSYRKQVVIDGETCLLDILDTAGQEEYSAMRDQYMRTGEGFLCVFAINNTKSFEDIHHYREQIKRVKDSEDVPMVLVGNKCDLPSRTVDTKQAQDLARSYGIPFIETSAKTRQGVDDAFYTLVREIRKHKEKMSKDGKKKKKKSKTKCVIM
T8 sequence (P01116 1-188 isoform P01116-2 G12D): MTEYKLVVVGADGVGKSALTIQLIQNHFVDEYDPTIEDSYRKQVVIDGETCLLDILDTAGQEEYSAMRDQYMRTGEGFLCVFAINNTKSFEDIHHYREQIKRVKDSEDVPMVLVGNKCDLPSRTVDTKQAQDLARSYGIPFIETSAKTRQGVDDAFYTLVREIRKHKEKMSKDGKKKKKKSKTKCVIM

IC50 [1] [nM]	IC50 [2] [nM]	IC50 [3] [nM]	IC50 [4] [nM]	IC50 [5] [nM]	IC50 [6] [nM]	IC50 [7] [nM]	IC50 [8] [nM]	SMILES
≤ 10	10 to 100	> 10000	10 to 100	10 to 100	≤ 10	≤ 10	10 to 100	Oc1cc(-c2ncc3c(N4CCCSCC4)nc(OCC45CCCN4CCC5)nc3c2F)c2ccccc2c1 [Example 38, 4-[8-fluoro-2-(1,2,3,5,6,7-hexahydropyrrolizin-8-ylmethoxy)-4-(1,4-thiazepan-4-yl)pyrido[4,3-d]pyrimidin-7-yl]naphthalen-2-ol]
100 to 10000	100 to 10000	> 10000	100 to 10000	100 to 10000	100 to 10000	100 to 10000	100 to 10000	Oc1cc(-c2ncc3c(N4CCCC5(CCOC5)C4)nc(OCC45CCCN4CCC5)nc3c2F)c2ccccc2c1 (stereo not shown) [Example 56, 4-[8-fluoro-2-(1,2,3,5,6,7-hexahydropyrrolizin-8-ylmethoxy)-4-(2-oxa-9-azaspiro[4.5]decan-9-yl)pyrido[4,3-d]pyrimidin-7-yl]naphthalen-2-ol]
